Data from PubChem BioAssay AID651796 (The Scripps Research Institute Molecular Screening Center, 2012).
The source made the active and inactive calls. How the calls were made is not given here.

Target: Nuclear receptor coactivator 1 (Homo sapiens) (UniProt Q15788)
Assay: SRC1 (NCOA1) coactivator inhibitors, late-stage follow-up, cell-based, luminescence (AID 651796)
Details: cell-based SRC1 reporter

Chain of Nuclear receptor coactivator 1 (Homo sapiens) (Q15788 whole entry, looked up): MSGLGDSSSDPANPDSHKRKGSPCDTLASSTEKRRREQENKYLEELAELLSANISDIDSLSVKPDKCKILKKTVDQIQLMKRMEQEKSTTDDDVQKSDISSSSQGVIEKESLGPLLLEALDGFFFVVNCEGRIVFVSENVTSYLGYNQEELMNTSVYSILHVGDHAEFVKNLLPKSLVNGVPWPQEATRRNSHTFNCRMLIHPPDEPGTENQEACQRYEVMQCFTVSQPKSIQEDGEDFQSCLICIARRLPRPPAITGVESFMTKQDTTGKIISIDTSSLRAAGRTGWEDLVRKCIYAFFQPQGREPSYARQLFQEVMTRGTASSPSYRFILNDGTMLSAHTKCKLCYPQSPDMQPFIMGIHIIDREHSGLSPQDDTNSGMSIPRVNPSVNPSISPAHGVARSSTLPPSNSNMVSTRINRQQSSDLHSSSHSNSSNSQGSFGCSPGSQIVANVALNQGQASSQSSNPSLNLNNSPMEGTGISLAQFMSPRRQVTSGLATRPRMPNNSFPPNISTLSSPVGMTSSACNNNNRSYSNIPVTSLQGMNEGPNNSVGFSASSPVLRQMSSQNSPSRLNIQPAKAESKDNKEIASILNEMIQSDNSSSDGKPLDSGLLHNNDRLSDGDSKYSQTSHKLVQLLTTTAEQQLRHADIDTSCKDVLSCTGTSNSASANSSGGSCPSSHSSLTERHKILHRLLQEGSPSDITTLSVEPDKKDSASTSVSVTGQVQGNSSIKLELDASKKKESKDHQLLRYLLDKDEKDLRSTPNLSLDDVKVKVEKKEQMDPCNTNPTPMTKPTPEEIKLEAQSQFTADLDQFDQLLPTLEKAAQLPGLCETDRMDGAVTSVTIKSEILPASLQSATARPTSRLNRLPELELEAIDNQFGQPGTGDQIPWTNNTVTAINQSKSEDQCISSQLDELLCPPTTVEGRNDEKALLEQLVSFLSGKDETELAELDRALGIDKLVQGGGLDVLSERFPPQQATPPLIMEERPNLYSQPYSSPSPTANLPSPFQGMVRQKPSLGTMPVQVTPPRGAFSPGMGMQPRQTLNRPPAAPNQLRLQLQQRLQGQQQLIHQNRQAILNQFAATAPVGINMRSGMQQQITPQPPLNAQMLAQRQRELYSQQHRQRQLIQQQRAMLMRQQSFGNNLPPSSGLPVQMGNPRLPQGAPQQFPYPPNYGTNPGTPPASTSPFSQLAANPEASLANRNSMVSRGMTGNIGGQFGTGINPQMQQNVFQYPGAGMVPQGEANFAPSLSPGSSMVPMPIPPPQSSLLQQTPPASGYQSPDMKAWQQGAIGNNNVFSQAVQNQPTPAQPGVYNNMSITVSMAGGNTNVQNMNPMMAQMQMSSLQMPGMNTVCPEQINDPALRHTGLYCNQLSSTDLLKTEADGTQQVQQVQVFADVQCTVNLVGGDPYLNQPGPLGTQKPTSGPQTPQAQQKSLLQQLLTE

IC50	SMILES
9.94 µM	COc1ccc(NC(=O)CN(C)C(=O)C2(c3ccccc3)CCCC2)cc1
inactive	COc1ccc(Nc2ncnc3ccc(Br)cc23)c(OC)c1
